Consider 103 molecules from ChEMBL document CHEMBL3507680, “University of Dundee, Gates Library screen for HepG2 cell viability”.

This series is described as follows: Human HepG2 cell viability assay in 384 well format. It counts as toxicity, cell-based. Set-up: dose 125 nL, time 70.5 hour; concentration not given beside the values. The note with it: HepG2 cells, read-out: Inhibition.
Take `Cc1nc(CN2CCN(C(=O)c3ccnc(N(C)C)c3)CC2)cs1`: the cytotoxicity at 70.5 h was -14.4%.
Under `CN(C(=O)c1ccc(-n2ncc(C#N)c2N)cc1)C1CCCC1` stands -1.19%; under `CCc1ccsc1C(=O)N1CCN(CC(N)=O)CC1`, 13.8%; under `CCN(Cc1cccc2c1OCO2)C(=O)Nc1ccccn1`, -9.07%.
For the molecule `Cc1cc(NC(=O)CN2CCC(N3CCNC3=O)CC2)on1`, the cytotoxicity at 70.5 h is -5.65%.
Consider `CCc1ccsc1C(=O)N1CCN(CCN2C(=O)CCC2=O)CC1`, for which the cytotoxicity at 70.5 h is -3.69%.
Turning to `Cc1cnn(CC2CCCN2CC(=O)Nc2nccs2)c1` (stereo not drawn), the cytotoxicity at 70.5 h was 3.35%.
Consider `Cc1ccc(OCC(O)CN2CCC(Cn3cc(C)cn3)CC2)cc1` (stereo not drawn), for which the cytotoxicity at 70.5 h is -0.66%.
On to `CCC(O)CN1CCN(C(=O)c2sccc2C2CC2)CC1` (stereo not drawn), for which the cytotoxicity at 70.5 h was -2.13%.
On to `c1ccc(-c2cc(CN3CCCC(Cn4cncn4)C3)on2)cc1` (stereo not drawn), for which the cytotoxicity at 70.5 h was -1.24%.
Turning to `Cc1cnn(CCNCc2nnc(-c3ccc(F)cc3)o2)c1`, the cytotoxicity at 70.5 h is -10.4%.
For `Cc1cnn(CC2CCCN2CC(=O)Nc2cc(C)on2)c1` (stereo not drawn), the cytotoxicity at 70.5 h worked out at 0.558%.
Under `CC(C)c1nc(CN(C)C2CCN(Cc3nnc(C4CC4)o3)C2)no1` (stereo not drawn) stands 1.8%.
For `CCc1nc(CN(C)C2CCN(Cc3nnc(C4CCC4)o3)C2)no1` (stereo not drawn) the value was -0.232%; for `Cc1nc(CN(C)C2CCN(Cc3nnc(C4CC4)o3)C2)no1` (stereo not drawn), 2.48%; for `Cc1cc(C)n(CC2CN(Cc3nc(C4CC4)no3)CCO2)n1` (stereo not drawn), -4.87%.
Under `Cc1cc(C)n(CC2CN(Cc3noc(C)n3)CCO2)n1` (stereo not drawn) stands 10.1%.
Regarding `c1ccc(CCCN2CCCC2Cn2cncn2)cc1` (stereo not drawn), the cytotoxicity at 70.5 h was -3.86%.
Consider `CCOc1ccc(C(=O)N2CCCC2c2c(C)nn(C)c2OC)cn1` (stereo not drawn), for which the cytotoxicity at 70.5 h is -4.47%.
Under `CS(=O)(=O)N1CCC(NC(=O)COc2ccc(Br)cc2Cl)CC1` stands 30.2%; under `CC(C)C(C)NC(=O)Nc1ccc(F)c(C(N)=O)c1` (stereo not drawn), -3.91%; under `CCOc1ncccc1C(=O)NC1CCCN(c2ncccn2)C1` (stereo not drawn), 1.87%.
As for `CC(CNC(=O)c1ccc(=O)[nH]n1)N1CCc2ccccc21` (stereo not drawn), the cytotoxicity at 70.5 h was determined as 2.77%.
Regarding `CS(=O)(=O)N1CCC(NC(=O)COc2ccc(Cl)cc2)CC1`, the cytotoxicity at 70.5 h is -4.42%.
In the case of `COc1cccc(CNCc2ccc(NC(=O)NC(C)C)cc2)c1`, the cytotoxicity at 70.5 h came out at 7.1%.
Under `Cc1cccc(CNCc2ccc(NC(=O)NC(C)C)cc2)c1` stands 2.57%; under `CCOc1cccc(CNCc2ccc(NC(=O)NC(C)C)cc2)c1`, 4.86%; under `COC(=O)c1cccn1C1CCN(Cc2nc3ccccc3o2)CC1`, -3.04%.
For `CN(Cc1ccc(F)cc1)C(=O)CN1CCOC(Cn2cccn2)C1` (stereo not drawn) the value was 0.224%; for `CN(Cc1ccco1)C(=O)CN1CCOC(Cn2cccn2)C1` (stereo not drawn), -1.5%.
Under `CC(C)CCOCCNC(=O)Nc1ccc(F)c(C(N)=O)c1` stands -1.3%.
Consider `O=S(=O)(CCNC1CCc2ncnn2C1)c1ccc(Cl)cc1` (stereo not drawn), for which the cytotoxicity at 70.5 h is -1.07%.
In the case of `O=S(=O)(CCCN1CCCC(Cn2cncn2)C1)c1ccccc1` (stereo not drawn), the cytotoxicity at 70.5 h amounted to 4.82%.
Turning to `O=C(c1cc(Cl)ccc1F)N1CCCC1Cn1cccn1` (stereo not drawn), the cytotoxicity at 70.5 h was 22.7%.
For `Cc1cnn(CC2CCCN2C(=O)c2ccc(F)c(F)c2)c1` (stereo not drawn), the cytotoxicity at 70.5 h is -0.479%.
`COC(=O)c1cccn1C1CCN(Cc2cnc3ccccn23)CC1`: the cytotoxicity at 70.5 h worked out at 10.2%.
Consider `COc1cccc(OCC(=O)NS(=O)(=O)c2ccc(Br)s2)c1`, for which the cytotoxicity at 70.5 h came out at 0.256%.
Turning to `CCc1n[nH]c(C2CN(C(=O)Cc3cccs3)CCO2)n1` (stereo not drawn), the cytotoxicity at 70.5 h amounted to 25.1%.
With `CC(=O)N(Cc1noc(C)n1)C1CCN(Cc2cccc(C#N)c2)C1` (stereo not drawn), the cytotoxicity at 70.5 h amounted to 30.1%.
As to `Cc1csc(C2CCCCN2C(=O)CN(C)C(C)C)n1` (stereo not drawn), the cytotoxicity at 70.5 h is 25.2%.
For the molecule `CC(C)(C)c1ncc(CNCC2CCCN2c2cccnn2)s1` (stereo not drawn), the cytotoxicity at 70.5 h came out at 5.55%.
Consider `CCN(CC)CC(=O)N1CCCCC1c1nc(C)cs1` (stereo not drawn), for which the cytotoxicity at 70.5 h was -2.06%.
Consider `CSc1ccc(C)c(C(=O)N2CCCC(n3cncn3)C2)c1` (stereo not drawn), for which the cytotoxicity at 70.5 h is -2.61%.
Under `OCC1CCCN1c1cc(NCc2cccs2)ncn1` (stereo not drawn) stands 17.3%; under `FC(F)CN1CCOC(Cn2cccn2)C1` (stereo not drawn), -3.37%; under `COc1ccc(C(C)NC(=O)Cn2ccc(=O)n(C)c2=O)cc1F` (stereo not drawn), -2.29%.
`CC(NC(=O)Cn1ccc(=O)n(C)c1=O)c1cc(F)ccc1F` (stereo not drawn): the cytotoxicity at 70.5 h is -1.78%.
Under `CN(C)c1cc(CNC(=O)Nc2nccs2)ccn1` stands -1.57%; under `COc1cc(CNC(=O)Nc2nnc(C(C)C)s2)ccn1`, 1.23%.
Regarding `CN(C)c1cc(CNC(=O)Nc2nnc(C3CC3)s2)ccn1`, the cytotoxicity at 70.5 h stood at 1.07%.
With `CN(C)c1cc(CNC(=O)Nc2nncs2)ccn1`, the cytotoxicity at 70.5 h is -0.639%.
As for `CCN(CC)C(C(=O)NCc1ccc(N2CCCC2)nc1)C(C)C` (stereo not drawn), the cytotoxicity at 70.5 h amounted to 2.85%.
Regarding `Cc1ccc(NC(=O)N(C)Cc2cnn(C)c2)cc1OCC(F)F`, the cytotoxicity at 70.5 h was 26.4%.
For `Cc1csc(C2CCCN(C(=O)c3cnc4n[nH]c(C)c4c3)C2)n1` (stereo not drawn) the value was -10.8%; for `Cn1cc(C2CCCN2CCCc2nc(-c3cccs3)no2)cn1` (stereo not drawn), -11.4%; for `Cc1cc(C)n(CC2CCCN2CC(=O)N(C)C)n1` (stereo not drawn), -11.4%.
As to `c1cc(CN2CCCC(c3noc(C4CC4)n3)C2)no1` (stereo not drawn), the cytotoxicity at 70.5 h worked out at 3.46%.
Under `O=C(CCN1CCCC1c1cccs1)N1CCc2sccc2C1` (stereo not drawn) stands -13.7%; under `O=C(COc1cccc(Br)c1)N1CCOCC1c1ncon1` (stereo not drawn), -3.27%; under `Cc1cnn(CCC(=O)N2CCCC(c3nc(C)no3)C2)c1` (stereo not drawn), 37.7%.
`CC(C)c1nc2n(n1)CC(NCc1nnnn1C1CC1)CC2` (stereo not drawn): the cytotoxicity at 70.5 h was -5.21%.
In the case of `N#Cc1ccccc1CN1CCCCC1Cn1cncn1` (stereo not drawn), the cytotoxicity at 70.5 h is -20%.
For `Cc1nn(C)c(C)c1C1CCCN1CCCc1nc2ccccc2o1` (stereo not drawn) the value was -8.55%.
Turning to `COc1ccc(CCC(=O)Nc2cccnc2N2CCCC2)cc1Br`, the cytotoxicity at 70.5 h is -5.48%.
Under `Cc1cc(C(=O)NCc2cccnc2OC(C)C)no1` stands -31.2%; under `CC(NC(=O)CCOc1ccccc1Cl)c1nnc2n1CCC2` (stereo not drawn), -16.2%; under `COc1cccc(COCC(=O)N2CCCC(c3nncn3C)C2)c1` (stereo not drawn), -12.7%.
For `O=C(NCc1ccc(-n2cncn2)nc1)c1ccc2c(c1)CCO2` the value was -10.1%.
`CC(NC(=O)Nc1cccnc1N1CCCC1)c1nncn1C` (stereo not drawn): the cytotoxicity at 70.5 h was -13.7%.
For `O=C(NCc1ccc(-n2cncn2)nc1)c1ccoc1`, the cytotoxicity at 70.5 h stood at 22.2%.
Regarding `CC(NC(=O)COc1ccc(F)cc1)c1nnc2n1CCCCC2` (stereo not drawn), the cytotoxicity at 70.5 h is -4%.
`CN1CCC(C(=O)NCc2nncn2-c2ccccc2)CC1=O` (stereo not drawn): the cytotoxicity at 70.5 h is -16.9%.
For `Cc1nn(C)c(C)c1C1CCCN1CC(=O)NC(C1CC1)C1CC1` (stereo not drawn), the cytotoxicity at 70.5 h was -2.06%.
For `CCCn1[nH]cc/c1=N\C(=O)CN1CCCC1c1c(C)nn(C)c1C` (stereo not drawn) the value was 16.9%; for `Cc1nc(C)n(C2CCCN(C(=O)c3cnc[nH]3)C2)n1` (stereo not drawn), -7.11%; for `CC(C)c1nc(C2CCCN2CCCc2nc3ccccc3o2)no1` (stereo not drawn), -12.9%.
`Cc1cccc(CCC(=O)N2CCCC(c3cc(C(N)=O)[nH]n3)C2)c1` (stereo not drawn): the cytotoxicity at 70.5 h came to 19%.
For `Cc1cnn(CCNCc2nnc(C3CC3)o2)c1` the value was 11.6%; for `O=C(NCC(=O)N1CCc2ccccc2C1)c1ccoc1`, 10.2%.
Regarding `CN(C)c1ccc(NC(=O)NCc2ccccn2)cn1`, the cytotoxicity at 70.5 h is -13.6%.
Regarding `Cc1ccc(F)cc1S(=O)(=O)NCc1cccnc1N(C)C`, the cytotoxicity at 70.5 h was -10.3%.
Regarding `COc1cc(C)c(S(=O)(=O)NCc2cccnc2N(C)C)c(C)c1`, the cytotoxicity at 70.5 h was -5.54%.
Consider `O=C(NCCn1ccnc1)N1CCN(c2nccs2)CC1`, for which the cytotoxicity at 70.5 h is 16.8%.
Under `CCC1CN(C(=O)NCCOc2ccc3c(c2)OCO3)CCO1` (stereo not drawn) stands -19.8%; under `Cn1ccc(C(=O)NCc2cccc(N3CCCCC3=O)c2)cc1=O`, -4.99%; under `COCCN1CCCN(C(=O)NC(C)Cn2cccn2)CC1` (stereo not drawn), -14.2%.
In the case of `Cc1noc(C(C)C)c1C(=O)NCCCN1CCCC1`, the cytotoxicity at 70.5 h is -6.55%.
Regarding `O=C(c1ccc(F)cc1Cl)N1CCC(Nc2cccnn2)CC1`, the cytotoxicity at 70.5 h is -7.6%.
Under `Cn1cc(CC(=O)N2CCC(Nc3cccnn3)CC2)c2ccccc21` stands -4.98%; under `CCn1nc2c(cc1=O)CN(CC(=O)Nc1nc(C)c(C)s1)CC2`, -13.9%; under `CCCn1nc2c(cc1=O)CN(CC(=O)Nc1ccncc1)CC2`, -17.2%.
With `CCc1n[nH]c(C2CN(C(=O)c3nc(C)n4ccccc34)CCO2)n1` (stereo not drawn), the cytotoxicity at 70.5 h was -20.1%.
Consider `CC(NC(=O)CCn1cncn1)c1nnc2n1CCCCC2` (stereo not drawn), for which the cytotoxicity at 70.5 h was -13.5%.
Consider `CCN1CCN(CC(C)(O)c2cccc(C(F)(F)F)c2)CC1` (stereo not drawn), for which the cytotoxicity at 70.5 h was -10.9%.
Under `CCc1n[nH]c(C2CN(C(=O)c3nc(C)ncc3Cl)CCO2)n1` (stereo not drawn) stands -7.75%; under `c1ccc(-n2ncc(CN3CCCC3Cn3cccn3)n2)cc1` (stereo not drawn), -15.5%; under `CC(C)CCC(=O)NC(C)c1nnc2n1CCCCC2` (stereo not drawn), -6.87%.
Turning to `Cc1nc(CN(C)C2CCN(CCCOc3ccccc3)C2)no1` (stereo not drawn), the cytotoxicity at 70.5 h worked out at 39.5%.
As for `CS(=O)(=O)N1CCC(NC(=O)COc2ccc(Cl)c(Cl)c2)CC1`, the cytotoxicity at 70.5 h was -8.67%.
For `CN1CCC/C1=N\S(=O)(=O)c1ccc(NC(=O)c2cccs2)cc1` the value was -2.28%.
Turning to `Cc1cc(C)cc(OCC(=O)NC2CCN(S(C)(=O)=O)CC2)c1`, the cytotoxicity at 70.5 h was found to be 23.8%.
Take `Cc1cc(NC(=O)NCC(C)N2CCc3ccccc32)no1` (stereo not drawn): the cytotoxicity at 70.5 h is -5.5%.
As for `COc1c(CNC2CCc3cc(F)ccc32)c(C)nn1C` (stereo not drawn), the cytotoxicity at 70.5 h is -15.1%.
